The values below come from PubChem BioAssay (NCI).

Molecules are shown by their SMILES.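 Step 1: Grow cells in 96-well plates. Step 2: Expose to compound for 48 hours at 5 concentrations. Step 3: Interpolate endpoints linearly; if unreached, use highest concentration. TGI: total growth inhibition.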 Where a SMILES comes first, the peptide text is derived from it. [ ]: non-standard residue; d: D form. pGlu = O=C1CC[CH](C(=O)O)N1; Thz = O=C(O)[CH]1CSCN1

Some test systems named below: UACC-257 melanoma; PC-3 prostate; RPMI-8226 leukemia; RXF 393 renal; HS 578T breast; SK-MEL-28 melanoma; NCI-H23 lung; NCI-H522 lung; OVCAR-4 ovarian; EKVX NSCLC; HOP-62 NSCLC.
Common to all, as to assay: DTP human tumour cell line panel, 48 h

Consider `Cc1nc(OCc2ccccc2)c2ncn(CCO)c2n1`, for which the TGI in the assay with UACC-257 melanoma, in the assay on PC-3 prostate, in the assay on RPMI-8226 leukemia, with RXF 393 renal, in the assay on HS 578T breast and with SK-MEL-28 melanoma was above 100 µM in each case. For the same compound, the TGI in the assay on NCI-H23 lung, with NCI-H522 lung and in the assay on OVCAR-4 ovarian was above 100 µM each time.

Take `Cc1nc2c(c(N3CCN(C)CC3)n1)Cc1ccccc1-2`: the TGI in the assay with UACC-257 melanoma, in the assay with EKVX NSCLC, with PC-3 prostate, in the assay with RPMI-8226 leukemia, in the assay on RXF 393 renal and in the assay with HS 578T breast was above 100 µM throughout. The TGI is above 100 µM in the assay with NCI-H23 lung and 56.4 µM with NCI-H522 lung.

Turning to `COc1c2c(c3c(c1OC)c(=O)c1ccccc1n3C)OCO2`, the TGI in the assay on UACC-257 melanoma, with EKVX NSCLC, with PC-3 prostate, with RPMI-8226 leukemia, with HS 578T breast and in the assay with SK-MEL-28 melanoma was above 100 µM throughout. Besides, the TGI with NCI-H23 lung, in the assay on NCI-H522 lung, with OVCAR-4 ovarian and in the assay on HOP-62 NSCLC was above 100 µM each time.

`CCOC(=O)C12CCC(=O)N1N(C)c1ncccc1N2` (stereo not drawn): the TGI in the assay with UACC-257 melanoma, in the assay on EKVX NSCLC, in the assay with RPMI-8226 leukemia, in the assay on RXF 393 renal, in the assay on SK-MEL-28 melanoma and in the assay with NCI-H23 lung was above 100 µM each time. Also, the TGI in the assay with NCI-H522 lung, in the assay on OVCAR-4 ovarian and in the assay with HOP-62 NSCLC was above 100 µM each time.

For the compound `COc1ccc(N2C(=O)C3CC(c4ccc(Br)cc4)c4c([nH]c5ccccc45)C3C2=O)cc1` (stereo not drawn), the TGI in the assay on UACC-257 melanoma is 36.8 µM; in the assay with EKVX NSCLC it was 42.7 µM; in the assay on RPMI-8226 leukemia, above 100 µM; with SK-MEL-28 melanoma it was 28.5 µM; in the assay with NCI-H23 lung, 28.5 µM; with OVCAR-4 ovarian, 9.29 µM. In the assay with HOP-62 NSCLC, this compound returned a TGI of 11.5 µM.

As for `COC(NC(=O)Nc1ccc(C)cc1)(C(F)(F)F)C(F)(F)F`, the TGI is above 100 µM in the assay on PC-3 prostate; 74.8 µM with RPMI-8226 leukemia; 71.7 µM in the assay on RXF 393 renal; above 100 µM with HS 578T breast; above 100 µM in the assay with SK-MEL-28 melanoma; 89.8 µM with NCI-H23 lung. Further, the TGI in the assay with NCI-H522 lung was 60.1 µM; in the assay on OVCAR-4 ovarian it was above 100 µM; in the assay on HOP-62 NSCLC it was above 100 µM.

Turning to `O=C1CCC(C(=O)N2CSCC2C(=O)O)N1` (stereo not drawn) ([pGlu]-[Thz]-OH; configuration not given here), the TGI in the assay with UACC-257 melanoma, in the assay on PC-3 prostate, with RPMI-8226 leukemia, in the assay on RXF 393 renal, in the assay with HS 578T breast and in the assay with SK-MEL-28 melanoma was above 100 µM each time. In addition, the TGI with NCI-H23 lung, in the assay on NCI-H522 lung and in the assay with HOP-62 NSCLC was above 100 µM in each case.

As for `COC(=O)C(Cc1c[nH]c2ccccc12)NC(=O)C(Cc1cnc[nH]1)NC(=O)C1CCC(=O)N1C(=O)OCc1ccccc1` (stereo not drawn), the TGI with UACC-257 melanoma, in the assay with EKVX NSCLC, with PC-3 prostate, in the assay with RPMI-8226 leukemia, in the assay on RXF 393 renal and with HS 578T breast was above 100 µM throughout. For the same compound, the TGI in the assay with SK-MEL-28 melanoma, in the assay on NCI-H23 lung and in the assay with HOP-62 NSCLC was above 100 µM throughout.

For the compound `Cc1ccc(S(=O)(=O)n2cc(C=O)c(-c3cn(S(=O)(=O)c4ccc(C)cc4)cc3-c3cn(S(=O)(=O)c4ccc(C)cc4)cc3C=O)c2)cc1`, the TGI with UACC-257 melanoma, with EKVX NSCLC, in the assay on PC-3 prostate, in the assay on RPMI-8226 leukemia, in the assay on RXF 393 renal and in the assay on HS 578T breast was above 100 µM in each case. Besides, the TGI in the assay on NCI-H23 lung, in the assay with NCI-H522 lung and with HOP-62 NSCLC was above 100 µM each time.

Consider `O=P1(c2ccccc2)C(c2ccccc2)CCC1c1ccccc1` (stereo not drawn), for which the TGI with UACC-257 melanoma was above 100 µM; in the assay with EKVX NSCLC it was above 100 µM; in the assay with PC-3 prostate it was above 100 µM; in the assay with RPMI-8226 leukemia, 78.2 µM; in the assay with RXF 393 renal, above 100 µM; with HS 578T breast it was above 100 µM. Besides, the TGI with SK-MEL-28 melanoma, in the assay with NCI-H23 lung, with NCI-H522 lung and in the assay with HOP-62 NSCLC was above 100 µM in each case.

Take `CCOP(=O)(CC(=O)C1CC1)OCC`: the TGI with UACC-257 melanoma, with EKVX NSCLC, in the assay with PC-3 prostate, with HS 578T breast, with SK-MEL-28 melanoma and with NCI-H23 lung was above 100 µM in each case. In addition, the total growth inhibition concentration (TGI) in the assay with NCI-H522 lung, with OVCAR-4 ovarian and with HOP-62 NSCLC was above 100 µM each time.

For `COc1ccc(CCN2CCN(CCCc3ccccc3)CC2)cc1`, the TGI in the assay on UACC-257 melanoma, in the assay with EKVX NSCLC, with PC-3 prostate, in the assay on RPMI-8226 leukemia, in the assay on HS 578T breast and in the assay with SK-MEL-28 melanoma was above 100 µM in each case. Besides, the TGI in the assay on NCI-H23 lung, in the assay on NCI-H522 lung, in the assay with OVCAR-4 ovarian and with HOP-62 NSCLC was above 100 µM throughout.

Take `O=c1[nH]c(Nc2ccc(Br)c(C(F)(F)F)c2)nc2nc[nH]c12`: the concentration for total growth inhibition (TGI) in the assay on UACC-257 melanoma was above 100 µM; with EKVX NSCLC, above 100 µM; in the assay with PC-3 prostate, above 100 µM; with RPMI-8226 leukemia, above 100 µM; in the assay on HS 578T breast, 45.6 µM; in the assay with SK-MEL-28 melanoma, above 100 µM. The TGI with NCI-H23 lung is above 100 µM; with NCI-H522 lung it was 63.5 µM; in the assay with OVCAR-4 ovarian, above 100 µM; with HOP-62 NSCLC, above 100 µM.

Take `NCC(=O)Nc1ccccc1`: the TGI in the assay on UACC-257 melanoma, in the assay with EKVX NSCLC, in the assay with PC-3 prostate, in the assay with RXF 393 renal, with HS 578T breast and in the assay on SK-MEL-28 melanoma was above 100 µM each time. The TGI in the assay on NCI-H23 lung, in the assay with NCI-H522 lung, in the assay on OVCAR-4 ovarian and in the assay on HOP-62 NSCLC was above 100 µM in each case.
